Source: PubChem BioAssay (NCI)
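Exposure lasted 48 hours, with cells grown in 96-well plates and compounds tested at five concentrations. GI50 marks 50% less growth. Definition used: TGI = concentration required for complete inhibition of growth.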 *1 amine or outer side, *2 acyl side, *3 side chain or, on linkers, in order; H or OH if unused. Where a SMILES comes first, the peptide text is derived from it. Bridges are numbered along the chain shown (N, C = ends). [ ]: non-standard residue; d: D form. The star is where a group is joined. Phe(3,5-F2) = N[C@@H](Cc1cc(F)cc(F)c1)C(=O)O; Pro(4R-Me) = C[C@H]1CN[C@H](C(=O)O)C1; aThr = C[C@H](O)[C@H](N)C(=O)O; Pip = O=C(O)[C@@H]1CCCCN1; X10 = Fc1cc(C2CC2)ccc1N*; CO = O=C([*:1])[*:2]

What was measured:
Test in all cases: NCI-60 cell line screen, 48 h
A498 renal = test system: A498 renal
EKVX NSCLC = test system: EKVX NSCLC
HL-60(TB) leukemia = test system: HL-60(TB) leukemia
HOP-92 NSCLC = test system: HOP-92 NSCLC
NCI/ADR-RES ovarian = test system: NCI/ADR-RES ovarian
SK-OV-3 ovarian = test system: SK-OV-3 ovarian
SN12C renal = test system: SN12C renal
SW-620 colon = test system: SW-620 colon
T-47D breast = test system: T-47D breast
TK-10 renal = test system: TK-10 renal

SMILES | GI50 (A498 renal) [µM] | TGI (A498 renal) [µM] | GI50 (EKVX NSCLC) [µM] | TGI (EKVX NSCLC) [µM] | GI50 (HL-60(TB) leukemia) [µM] | TGI (HL-60(TB) leukemia) [µM] | GI50 (HOP-92 NSCLC) [µM] | TGI (HOP-92 NSCLC) [µM] | GI50 (NCI/ADR-RES ovarian) [µM] | TGI (NCI/ADR-RES ovarian) [µM] | GI50 (SK-OV-3 ovarian) [µM] | TGI (SK-OV-3 ovarian) [µM] | GI50 (SN12C renal) [µM] | TGI (SN12C renal) [µM] | GI50 (SW-620 colon) [µM] | TGI (SW-620 colon) [µM] | GI50 (T-47D breast) [µM] | TGI (T-47D breast) [µM] | GI50 (TK-10 renal) [µM] | TGI (TK-10 renal) [µM]
CCC(=O)[C@H](C)[C@@H](OC(=O)[C@H](C)CC)[C@H](C)[C@H]1OC(CC)=C(C)C(=O)[C@@H]1C | 25.2 | 73 | 23.9 | 73.9 | 15.3 | 40.3 | 23.1 | 62.1 | 18.6 | 55 | 37.1 | > 100 | 15.4 | 29.8 | 24.7 | 62.5 | 18.1 | > 100 | 30.7 | 88.9
O=C(Nc1ccc(F)cc1)Nc1ccc(Cl)c([N+](=O)[O-])c1 | 1.8 | 5.78 | 2.79 | 11 | 2.5 | 8.56 | 2.03 | 6.12 | 2.6 | 10.3 | 2.62 | 7.52 | 2.95 | 11.7 | 3.45 | 13.9 | 2.18 | 9.67 | 4.1 | 20.1
COc1cccc(-c2cc(-c3cccc(NS(C)(=O)=O)c3)nc(N)c2C#N)c1O | 0.0999 | 35 | 0.561 | > 100 | 0.0861 | 2.77 | 3.19 | > 31.5 | 0.154 | 2.34 | 0.149 | > 100 | 0.505 | > 100 | 0.0904 | > 100 | 0.317 | 58.6 | 0.5 | > 100
Nc1ccccc1C#C/C=C\C#Cc1ccccc1OC(F)(F)F | 3.93 | 14 | 9.16 | 58.7 | 2.08 | 11.1 | 9.57 | 26.4 | 2.82 | 11.1 | 7.12 | 67.7 | 9.85 | 26.8 | 3.96 | 16 | 4.19 | 74.1 | 10.6 | 43.7
O=C(Nc1ccc(-n2ccc3c(NC(=O)c4ccccc4)nccc32)cc1)c1ccc(Cl)c(C(F)(F)F)c1 | 6.1 | 33.1 | 9.59 | > 50 | 0.687 | 9.78 | 3.42 | > 42.2 | 0.96 | 15.2 | 1.18 | 20.7 | 2.25 | 18.3 | 0.335 | 1.44 | 6.2 | 20.4 | 5.38 | 13.5
Cc1cnc(NCCCN(C)C)c2c1[nH]c1ccc3cc(O)ccc3c12 | – | 3.71 | – | 4.34 | – | 8.37 | – | 1.31 | – | 20.1 | – | 2.75 | – | 1.78 | – | 1.97 | – | 2.78 | – | 15.8
Cc1ccnc2c1ccc1c(C)ccnc12 | 0.327 | 3.71 | 0.389 | 12.7 | 0.328 | 2.39 | 0.656 | 16.1 | 0.204 | 1.79 | 0.526 | 9.61 | 0.441 | 13.1 | 0.429 | 15.9 | 0.883 | 12.6 | 0.588 | 14.6
C[C@@H]1C[C@H]2C(=O)O[C@@H](C)[C@H](NC(=O)[C@H](Cc3cc(F)cc(F)c3)NC(=O)Nc3ccc(C4CC4)cc3F)C(=O)N3CCC[C@H]3C(=O)N3CCCC[C@H]3C(=O)N[C@@H](C)C(=O)N2C1 ({X10-CO}-[Phe(3,5-F2)][aThr]P[Pip]A[Pro(4R-Me)]; ester 2-C) | 0.0203 | 0.363 | 0.0613 | > 95.6 | 0.0387 | 1.82 | 0.0452 | 4.76 | 0.354 | 45.6 | 0.0504 | 16 | 0.0401 | 42.7 | 0.0534 | > 100 | 0.0448 | > 22.1 | 0.343 | > 35.1
COC([CH2][Hg][n]1cnc2c1c(=O)n(C)c(=O)n2C)CN1C(=O)c2ccccc2S1(=O)=O (centres undefined) | > 100 | > 100 | > 100 | > 100 | 53.4 | > 100 | > 100 | > 100 | > 100 | > 100 | > 100 | > 100 | > 100 | > 100 | > 100 | > 100 | > 100 | > 100 | > 100 | > 100
Fc1[nH]nc2ccc([C@@H]3Nc4ccc5[nH]ncc5c4[C@H]4C5CCC(C5)[C@@H]34)cc12 (some centres undefined) | 0.536 | 3.91 | 2.39 | 17.4 | 0.348 | 1.69 | 2 | 14.2 | 0.576 | 8.99 | 1.88 | 16.5 | 1.99 | 18.1 | 0.472 | 17.3 | 0.436 | 12.9 | 3.51 | 15.5
COc1cc(/C=N\NC(=O)CN2CCN(c3cc4c(cc3F)c(=O)c(C(=O)N/N=C/c3cc(OC)c(OC)c(OC)c3)cn4C3CC3)CC2)cc(OC)c1OC | 0.299 | 23.7 | – | > 100 | 0.32 | > 31.7 | 0.198 | 0.674 | > 100 | > 100 | 0.718 | > 53.1 | 0.225 | 0.601 | 0.328 | > 100 | 0.255 | 0.767 | > 100 | > 100
CC(=O)OC1OC([C@@H]2c3cccc(O)c3C(=O)c3c(O)cc(C)cc32)C(O)C(O)C1O (some centres undefined) | 0.0444 | 0.358 | 0.026 | 0.368 | 0.0173 | 0.0493 | 0.0233 | 0.0717 | 0.0391 | 0.773 | 0.134 | 3.17 | < 0.0179 | < 0.0321 | 0.0231 | 1.73 | 0.306 | 0.87 | 0.0286 | 0.26
Cc1ccc(Cl)c2c(N=Nc3ccccc3[N+](=O)[O-])c(O)[nH]c12 | – | > 100 | – | > 100 | – | > 100 | – | > 100 | – | > 100 | – | > 100 | – | > 100 | – | > 100 | – | > 100 | – | > 100
